Measured values published in paper PMC11440035, “Interaction of myricetin, ampelopsin (dihydromyricetin), and their sulfate metabolites with serum albumin, cytochrome P450 (CYP2C9, 2C19, and 3A4) enzymes, and organic anion‐transporting polypeptides (OATP1B1 and OATP2B1)” (Pharmacology Research & Perspectives, 2024).

Assays:
OATP1B1 = molecular target: T1, OATP1B1 (Homo sapiens, UniProt Q9Y6L6); experiment: Uptake of flavonoids by A431-OATP1B1 versus mock cells (APB fluorescence); format: cell-based; conditions: for cellular flavonoid level in OATP1B1‐overexpressing versus mock control cells: 10 μM flavonoid, 15 min, 37°C; for substrate of OATP1B1: conclusion from uptake studies
T1 construct: expressed in transfected cells; host or cells: A431
T1 sequence (Q9Y6L6 1-691): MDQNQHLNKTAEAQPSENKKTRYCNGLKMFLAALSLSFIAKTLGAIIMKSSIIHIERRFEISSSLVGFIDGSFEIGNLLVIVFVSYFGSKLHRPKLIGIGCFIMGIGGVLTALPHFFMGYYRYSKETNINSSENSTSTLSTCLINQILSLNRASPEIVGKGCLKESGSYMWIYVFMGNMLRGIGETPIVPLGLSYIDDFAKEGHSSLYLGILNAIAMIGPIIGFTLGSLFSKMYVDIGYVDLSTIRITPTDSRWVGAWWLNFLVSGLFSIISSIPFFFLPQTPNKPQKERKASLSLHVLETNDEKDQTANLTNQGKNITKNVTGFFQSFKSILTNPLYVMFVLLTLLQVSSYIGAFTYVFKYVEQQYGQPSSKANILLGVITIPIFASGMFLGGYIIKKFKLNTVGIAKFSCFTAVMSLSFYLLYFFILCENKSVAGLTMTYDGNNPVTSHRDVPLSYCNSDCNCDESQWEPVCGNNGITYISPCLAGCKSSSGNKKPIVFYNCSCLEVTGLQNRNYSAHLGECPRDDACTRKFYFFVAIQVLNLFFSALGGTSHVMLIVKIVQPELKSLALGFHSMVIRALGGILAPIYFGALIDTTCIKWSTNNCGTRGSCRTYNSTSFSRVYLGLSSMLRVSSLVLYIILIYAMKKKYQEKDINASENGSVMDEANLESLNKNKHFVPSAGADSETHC
Method: (§1) Direct uptake of AMP, MYR, and their sulfate metabolites were examined in A431 cells overexpressing OATP1B1 or OATP2B1, and in their mock‐transfected controls using APB as a fluorescence enhancer. One day before the uptake measurements, the cells were seeded onto 96‐well plates at a density of 80 000 cells/well in DMEM (200 μL). The following day, the cell culture medium was removed, and the cells were rinsed thrice with PBS (200 μL). Thereafter, the cells were preincubated with HBSS (50 μL) for 5 min at 37°C. The uptake reaction was initiated by the addition of a further 50 μL of HBSS containing AMP, MYR, or their sulfate conjugates (10 μM). After incubating for 15 min at 37°C, the reaction was stopped by removing the supernatant and rinsing the cells three times with ice‐cold PBS. Then PBS buffer (200 μL) containing APB (250 μg/mL) and BSA (1 mg/mL) was added to each well.[35] The fluorescence was read using an Enspire plate reader using the wavelengths listed in Section 2.7.
(§2) The concentration‐dependent uptake of M3′S was also tested under the same conditions, except the cells were incubated with 0–10 μM M3′S for 2 min (OATP1B1) or 5 min (OATP2B1).
(§3) To test the effect of BSP (a known inhibitor of OATPs[44]) on the cellular uptake of M3′S, cells were preincubated with HBSS buffer (50 μL) with or without BSP (20 μM) for 5 min at 37°C. Thereafter, we added 50 μL of HBSS containing M3′S (final concentration: 2 μM), and cells were further incubated at 37°C for 2 min (OATP1B1) or 5 min (OATP2B1). The reaction was stopped by removing the supernatant. After washing the cells with ice‐cold PBS, a PBS buffer with APB/BSA was added. Fluorescence was determined by applying an Enspire plate reader at excitation/emission wavelengths of 480/540 nm.

[1] = tested on: T2, human serum albumin (HSA); experiment: Ultrafiltration: displacement of the Site I marker warfarin from HSA; format: binding; conditions: flavonoid 20 μM, warfarin 1 μM, HSA 5 μM, PBS pH 7.4
T2 construct: purchased Merck (Darmstadt, Germany) A1653
Method: The impacts of MYR, M3′S, AMP, and A4′S on the albumin‐bound fraction of the Site I marker warfarin were examined with the previously reported ultrafiltration method.[17], [18] Briefly, samples contained warfarin (1 μM) and HSA (5 μM) without or with flavonoids (20 μM) in PBS (pH 7.4). After two washing steps of the filters (Amicon Ultra‐0.5 Centrifugal Filter Units, 30 kDa molecular weight cut‐off; Merck, Darmstadt, Germany) with water then PBS (both 500 μL), samples (500 μL) were centrifuged for 10 min (7500 g, 25°C, fixed angle rotor).
Warfarin was quantified using an HPLC system (Jasco, Tokyo, Japan) with an autosampler (AS‐4050), a binary pump (PU‐4180), a fluorescence detector (Jasco FP‐920), and the ChromNAV2 software. The concentrations of warfarin in the filtrate were directly determined by applying the previously described method.[17], [18] […] The fluorescence detection of warfarin was carried out at 310 and 390 nm excitation and emission wavelengths, respectively.

OATP2B1 = molecular target: T3, OATP2B1 (Homo sapiens, UniProt O94956); experiment: Uptake of flavonoids by A431-OATP2B1 versus mock cells (APB fluorescence); format: cell-based; conditions: for cellular flavonoid level in OATP2B1‐overexpressing versus mock control cells: 10 μM flavonoid, 15 min, 37°C; for substrate of OATP2B1: conclusion from uptake studies
T3 construct: expressed in transfected cells; host or cells: A431
T3 sequence (O94956 1-709): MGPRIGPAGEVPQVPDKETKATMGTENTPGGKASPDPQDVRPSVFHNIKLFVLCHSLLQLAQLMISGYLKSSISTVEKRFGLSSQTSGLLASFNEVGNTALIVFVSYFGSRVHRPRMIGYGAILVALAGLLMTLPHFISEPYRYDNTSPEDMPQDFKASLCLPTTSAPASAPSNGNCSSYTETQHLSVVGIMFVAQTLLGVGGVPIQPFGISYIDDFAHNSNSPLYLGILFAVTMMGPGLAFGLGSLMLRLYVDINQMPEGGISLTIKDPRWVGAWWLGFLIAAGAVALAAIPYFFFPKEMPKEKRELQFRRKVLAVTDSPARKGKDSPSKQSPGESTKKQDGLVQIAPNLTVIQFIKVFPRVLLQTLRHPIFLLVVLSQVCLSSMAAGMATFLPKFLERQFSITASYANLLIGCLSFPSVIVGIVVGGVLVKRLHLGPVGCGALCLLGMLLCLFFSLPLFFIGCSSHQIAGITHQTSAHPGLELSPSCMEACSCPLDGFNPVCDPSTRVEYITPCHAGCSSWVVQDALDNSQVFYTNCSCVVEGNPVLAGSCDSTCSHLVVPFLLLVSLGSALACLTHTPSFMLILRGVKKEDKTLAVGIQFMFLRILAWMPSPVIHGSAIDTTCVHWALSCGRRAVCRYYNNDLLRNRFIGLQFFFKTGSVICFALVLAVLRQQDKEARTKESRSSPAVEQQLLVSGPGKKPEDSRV
Method: as §1, §2, §3

| Structure (SMILES) | cellular flavonoid level in OATP1B1‐overexpressing versus mock control cells (OATP1B1) | substrate of OATP1B1 (OATP1B1) | effect on the filtered fraction of warfarin [1] | cellular flavonoid level in OATP2B1‐overexpressing versus mock control cells (OATP2B1) | substrate of OATP2B1 (OATP2B1) | concentration‐dependent uptake in OATP1B1‐overexpressing cells (OATP1B1; 0–10 μM, 2 min) | concentration‐dependent uptake in OATP2B1‐overexpressing cells (OATP2B1; 0–10 μM, 5 min) |
| --- | --- | --- | --- | --- | --- | --- | --- |
| O=C1c2c(O)cc(O)cc2OC(c2cc(O)c(OS(=O)(=O)O)c(O)c2)C1O (stereo not shown) [A4′S, ampelopsin‐4′‐O‐sulfate] | did not show statistically significant differences | not substrates | not affected | did not show statistically significant differences | not substrates | – | – |
| O=C1c2c(O)cc(O)cc2O[C@H](c2cc(O)c(O)c(O)c2)[C@H]1O [AMP, ampelopsin] | did not show statistically significant differences | not substrates | not affected | did not show statistically significant differences | not substrates | – | – |
| O=c1c(O)c(-c2cc(O)c(O)c(OS(=O)(=O)O)c2)oc2cc(O)cc(O)c12 [M3′S, myricetin‐3′‐O‐sulfate] | more than two‐fold | substrate | moderate increases | almost five‐fold | substrate | saturable uptake | saturable uptake |
| O=c1c(O)c(-c2cc(O)c(O)c(O)c2)oc2cc(O)cc(O)c12 [MYR, myricetin] | did not show statistically significant differences | not substrates | moderate increases | did not show statistically significant differences | not substrates | – | – |
